Drawing on patent US9850247B2 (Almac Discovery Limited, priority 2013, dated 2017), this text covers IC50 and microsomal CLint for 20 compounds.

The subject of series [1] is phospho-cdc2 (Tyr15) in HT-29 cells. Kind of series: Effect on phosphorylation of cdc2 at Tyr15, PathScan ELISA (Method 2). It counts as cell-based. As to conditions: Homo sapiens, 8 h, eight hours incubation, read-out: HT29 pCDC2 method 2. Here is the method: Method 2: Determining the Effect of Compounds on the phosphorylation of cdc2 at Tyr15
The colorectal cancer cell lines HT-29 and HCT-116 were purchased from the ATCC and routinely maintained in McCoy's Medium (Invitrogen) supplemented with 10% Foetal Calf Serum.
The cells were trypsinised from their growing vessel and counted, 100 μL of cell suspension containing 6000 cells was pipetted into black 96 well Co-star plates and incubated overnight to allow adherence to the surface at a temperature of 37° C. and an atmosphere of 5% CO2. Test compounds were formulated in DMSO and diluted in foetal calf serum supplemented medium. Incubating medium was removed by aspiration and diluted drug supplemented medium added to each well.
The plate was returned to the incubator for an additional eight hours at 37° C. and an atmosphere of 5% CO2. Post incubation, the drug supplemented medium was aspirated from each well and the cells were washed once in ice-cold phosphate buffered saline (PBS). 100 μL of cell lysis buffer (Cell Signalling Technologies #9803) containing 20 mM Tris, 150 mM NaCl, 1 mM EDTA, 1 mM EGTA, 1% Triton-X100, 2.5 mM sodium pyrophosphate, 1 mM glycerophosphate, 1 mM Na3VO4 and 1 μg/mL leupeptin was added to each well of the 96 well plate and incubated at 4° C. for 30 min. The samples on the plate were snap frozen at −80° C. until required. Immediately before the continuation of the assay, the sample plate was thawed and centrifuged at 4° C. for 10 min and the supernatant transferred to secondary tubes or 96 well plate.
Cell supernatant was mixed in a ratio of 1:1 with sample dilutent buffer and vortexed for one minute. 100 μL of diluted sample was pipetted into pre-coated plates containing a rabbit polyclonal antibody for phospho-cdc2 (Tyr15) (Cell Signalling Technologies PathScan kit #7176). The plate was sealed and incubated overnight at 4° C.
The plate seal was removed and the well contents aspirated, followed by 3×5 min washes with 200 μL of diluted wash buffer. Between each wash the plate was tapped firmly onto blotting paper to ensure the removal of all kit solution. 100 μL of kit detection antibody was added to each well and the plate re-sealed and incubated at 37° C. for 1 h. Post incubation the plate was washed and processed in a similar manner to that previously described.
100 μL of horseradish peroxidise-linked secondary antibody was added to each test well, the plate sealed and incubated for thirty minutes at 37° C. Post incubation, the plate was washed as previously stated, followed by the addition of 100 μL of 3,3′,5,5′ tetramethylbenzidine (TMB reagent). The plate was sealed and incubated at RT for 30 min.
100 μL of stop solution was added to each well and the underside of the plate wiped with a lint-free tissue, prior to spectrophotometric determination. Absorbance from each well was read at 450 nm within 30 min of the addition of the stop solution.
The percentage of phospho-cdc2 was calculated compared to DMSO control and plotted versus the concentration of inhibitor using GraphPad Prism. Data was fitted using non-linear regression analysis and IC50 values generated.
Background: An ELISA detects its analyte on a solid surface through an enzyme-linked reagent.

Series [2] can be described thus: CLint estimates using human liver microsomes (Method 4). It counts as in vitro ADME. The note with it: pH 7.4, 1 μM compound, read-out: Mics - CLint (HLM CLint). The essentials:
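Depletion measured by LC/MS/MS in MRM mode over 2–50 min after starting reactions with 1 mM NADPH. Incubations used 0.5 mg/mL human liver microsomal protein, 1 μM compound, 0.1% DMSO, pH 7.4 phosphate buffer, 37 °C. ln peak area plotted against time; the gradient gave t½ and intrinsic clearance.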

As to `CN1CN(c2c(Cl)cccc2Cl)C(=O)c2cnc(Nc3ccc(N4CCNCC4)c(C#N)c3)nc21` [Example 11, 3-(2,6-Dichlorophenyl)-7-((3-cyano-4-(piperazin-1-yl)phenyl)amino)-1-methyl-2,3-dihydropyrimido[4,5-d]pyrimidin-4(1H)-one], the IC50 in series [1] is 0.1 to 1 µM. Moreover, in series [2], the microsomal CLint at 1 μM is ≤ 15 µL/min/mg.
Consider `CN1CN(c2c(F)cccc2Cl)C(=O)c2cnc(Nc3ccc(N4CCNCC4)cc3)nc21` [Example 25, 3-(2-Chloro-6-fluorophenyl)-1-methyl-7-((4-(piperazin-1-yl)phenyl)amino)-2,3-dihydropyrimido[4,5-d]pyrimidin-4(1H)-one], for which the IC50 in series [1] is ≤ 0.1 µM. For the same compound, the microsomal CLint at 1 μM in series [2] is ≤ 15 µL/min/mg.
For `C[C@H]1CN(c2ccc(Nc3ncc4c(n3)N(C)CN(c3c(Cl)cccc3Cl)C4=O)cc2)CCN1` [Example 17, (S)-3-(2,6-Dichlorophenyl)-1-methyl-7-((4-(3-methylpiperazin-1-yl)phenyl)amino)-2,3-dihydropyrimido[4,5-d]pyrimidin-4(1H)-one], in that order: ≤ 0.1 µM and 15 to 50 µL/min/mg.
As for `CN1CN(c2c(Cl)cccc2Cl)C(=O)c2cnc(Nc3ccc(N4CCN[C@@H](CO)C4)cc3)nc21` [Example 19, (R)-3-(2,6-Dichlorophenyl)-7-((4-(3-(hydroxymethyl)piperazin-1-yl)phenyl)amino)-1-methyl-2,3-dihydropyrimido[4,5-d]pyrimidin-4(1H)-one], the IC50 in series [1] lay in the range of 0.1 to 1 µM. For the same compound, the microsomal CLint at 1 μM in series [2] is ≤ 15 µL/min/mg.
For `COC[C@H]1CN(c2ccc(Nc3ncc4c(n3)N(C)CN(c3c(Cl)cccc3Cl)C4=O)cc2)CCN1` [Example 60, (R)-3-(2,6-dichlorophenyl)-7-((4-(3-(methoxymethyl)piperazin-1-yl)phenyl)amino)-1-methyl-2,3-dihydropyrimido[4,5-d]pyrimidin-4(1H)-one], the IC50 in series [1] is ≤ 0.1 µM. Moreover, the microsomal CLint at 1 μM in series [2] was ≤ 15 µL/min/mg.
For the compound `CC(C)N1CCN(c2ccc(Nc3ncc4c(n3)N(C)CN(c3c(Cl)cccc3Cl)C4=O)cc2CO)CC1` [Example 21, 3-(2,6-Dichlorophenyl)-7-((3-(hydroxymethyl)-4-(4-isopropylpiperazin-1-yl)phenyl)amino)-1-methyl-2,3-dihydropyrimido[4,5-d]pyrimidin-4(1H)-one], the IC50 in series [1] was ≤ 0.1 µM. Also, the microsomal CLint at 1 μM in series [2] is 15 to 50 µL/min/mg.
Turning to `CN1CN(c2c(Cl)cccc2Cl)C(=O)c2cnc(Nc3ccc4c(c3)CNCC4)nc21` [Example 14, 3-(2,6-Dichlorophenyl)-1-methyl-7-((1,2,3,4-tetrahydroisoquinolin-7-yl)amino)-2,3-dihydropyrimido[4,5-d]pyrimidin-4(1H)-one], in series [1], the IC50 was ≤ 0.1 µM. Further, the microsomal CLint at 1 μM in series [2] was ≤ 15 µL/min/mg.
In the case of `Cc1cc(Nc2ncc3c(n2)N(C)CN(c2c(Cl)cccc2Cl)C3=O)ccc1C1CCNCC1` [Example 18, 3-(2,6-Dichlorophenyl)-1-methyl-7-((3-methyl-4-(piperidin-4-yl)phenyl)amino)-2,3-dihydropyrimido[4,5-d]pyrimidin-4(1H)-one], the IC50 in series [1] was in the range of 0.1 to 1 µM. Besides, the microsomal CLint at 1 μM in series [2] was ≤ 15 µL/min/mg.
For `C[C@@H]1CN(c2ccc(Nc3ncc4c(n3)N(C)CN(c3c(Cl)cccc3Cl)C4=O)cc2)[C@@H](C)CN1` [Example 80, 3-(2,6-dichlorophenyl)-7-((4-((2S,5R)-2,5-dimethylpiperazin-1-yl)phenyl)amino)-1-methyl-2,3-dihydropyrimido[4,5-d]pyrimidin-4(1H)-one], in series [1], the IC50 was ≤ 0.1 µM. Further, in series [2], the microsomal CLint at 1 μM is 15 to 50 µL/min/mg.
Consider `COc1cc(Nc2ncc3c(n2)N(C)CN(c2c(Cl)cccc2Cl)C3=O)ccc1N1CCNCC1` [Example 3, 3-(2,6-Dichlorophenyl)-7-((3-methoxy-4-(piperazin-1-yl)phenyl)amino)-1-methyl-2,3-dihydropyrimido[4,5-d]pyrimidin-4(1H)-one], for which the IC50 in series [1] fell in the range of 0.1 to 1 µM. Further, the microsomal CLint at 1 μM in series [2] is 15 to 50 µL/min/mg.
On to `C[C@@H]1CN(c2ccc(Nc3ncc4c(n3)N(C)CN(c3c(Cl)cccc3Cl)C4=O)cc2F)CCN1` [Example 43, (R)-3-(2,6-dichlorophenyl)-7-((3-fluoro-4-(3-methylpiperazin-1-yl)phenyl)amino)-1-methyl-2,3-dihydropyrimido[4,5-d]pyrimidin-4(1H)-one], for which the IC50 in series [1] fell in the range of 0.1 to 1 µM. Moreover, the microsomal CLint at 1 μM in series [2] was ≤ 15 µL/min/mg.
`COCc1cc(Nc2ncc3c(n2)N(C)CN(c2c(Cl)cccc2Cl)C3=O)ccc1N1CCN[C@H](C)C1` [Example 59, (R)-3-(2,6-dichlorophenyl)-7-((3-(methoxymethyl)-4-(3-methylpiperazin-1-yl)phenyl)amino)-1-methyl-2,3-dihydropyrimido[4,5-d]pyrimidin-4(1H)-one]: in series [1], the IC50 was in the range of 0.1 to 1 µM. Further, in series [2], the microsomal CLint at 1 μM is ≤ 15 µL/min/mg.
For the compound `CN1CN(c2c(Cl)cccc2Cl)C(=O)c2cnc(Nc3ccc(N4CCN(C(=O)CN)CC4)cc3)nc21` [Example 13, 7-((4-(4-(2-Aminoacetyl)piperazin-1-yl)phenyl)amino)-3-(2,6-dichlorophenyl)-1-methyl-2,3-dihydropyrimido[4,5-d]pyrimidin-4(1H)-one], the IC50 in series [1] was in the range of 0.1 to 1 µM. Moreover, the microsomal CLint at 1 μM in series [2] is ≤ 15 µL/min/mg.
For `C[C@@H]1CN(c2ccc(Nc3ncc4c(n3)N(C)CN(c3c(F)cccc3Cl)C4=O)cc2)CCN1` [Example 53, (R)-3-(2-chloro-6-fluorophenyl)-1-methyl-7-((4-(3-methylpiperazin-1-yl)phenyl)amino)-2,3-dihydropyrimido[4,5-d]pyrimidin-4(1H)-one], the IC50 in series [1] was ≤ 0.1 µM. For the same compound, the microsomal CLint at 1 μM in series [2] is ≤ 15 µL/min/mg.
For the compound `CNCCOc1ccc(Nc2ncc3c(n2)N(C)CN(c2c(Cl)cccc2Cl)C3=O)cc1` [Example 2, 3-(2,6-Dichlorophenyl)-1-methyl-7-((4-(2-(methylamino)ethoxy)phenyl)amino)-2,3-dihydropyrimido[4,5-d]pyrimidin-4(1H)-one], the IC50 in series [1] was 0.1 to 1 µM. For the same compound, in series [2], the microsomal CLint at 1 μM was ≤ 15 µL/min/mg.
In the case of `[2H]C1([2H])N(C)c2nc(Nc3ccc(N4CCNCC4)cc3)ncc2C(=O)N1c1c(Cl)cccc1Cl` [Example 15, 3-(2,6-Dichlorophenyl)-2,2-dideutero-1-methyl-7-((4-(piperazin-1-yl)phenyl)amino)-2,3-dihydropyrimido[4,5-d]pyrimidin-4(1H)-one], the IC50 in series [1] is ≤ 0.1 µM. Moreover, in series [2], the microsomal CLint at 1 μM is ≤ 15 µL/min/mg.
Consider `COCc1cc(Nc2ncc3c(n2)N(C)CN(c2c(Cl)cccc2Cl)C3=O)ccc1N1CCNCC1` [Example 31, 3-(2,6-dichlorophenyl)-7-((3-(methoxymethyl)-4-(piperazin-1-yl)phenyl)amino)-1-methyl-2,3-dihydropyrimido[4,5-d]pyrimidin-4(1H)-one], for which the IC50 in series [1] fell in the range of 0.1 to 1 µM. In series [2], the microsomal CLint at 1 μM is ≤ 15 µL/min/mg.
On the same counts, the results for `CN1CN(c2c(Cl)cccc2Cl)C(=O)c2cnc(Nc3ccc(N4CC5CCC(C4)N5C)c(CO)c3)nc21` [Example 86, 3-(2,6-dichlorophenyl)-7-((3-(hydroxymethyl)-4-(8-methyl-3,8-diazabicyclo[3.2.1]octan-3-yl)phenyl)amino)-1-methyl-2,3-dihydropyrimido[4,5-d]pyrimidin-4(1H)-one] are ≤ 0.1 µM and ≤ 15 µL/min/mg.
For `CN1CCc2ccc(Nc3ncc4c(n3)N(C)CN(c3c(Cl)cccc3Cl)C4=O)cc2C1` [Example 22, 3-(2,6-Dichlorophenyl)-1-methyl-7-((2-methyl-1,2,3,4-tetrahydroisoquinolin-7-yl)amino)-2,3-dihydropyrimido[4,5-d]pyrimidin-4(1H)-one], in series [1], the IC50 was ≤ 0.1 µM. The microsomal CLint at 1 μM in series [2] was 15 to 50 µL/min/mg.
Regarding `C[C@@H]1CN[C@@H](C)CN1c1ccc(Nc2ncc3c(n2)N(C)CN(c2c(Cl)cccc2Cl)C3=O)cc1` [Example 40, 3-(2,6-dichlorophenyl)-7-((4-((2R,5S)-2,5-dimethylpiperazin-1-yl)phenyl)amino)-1-methyl-2,3-dihydropyrimido[4,5-d]pyrimidin-4(1H)-one], the IC50 in series [1] is ≤ 0.1 µM. Besides, the microsomal CLint at 1 μM in series [2] was ≤ 15 µL/min/mg.
